Results taken from ChEMBL document CHEMBL4825666, “Antitrypanosomal Lactones from Nectandra barbellata” (J Nat Prod, 2021).
pIC50: −log10 of the molar value. Calls of active or inactive are those of the source. No cut-off for these calls is given here.

Experiments:
[1] = tested on: Cell membrane; assay: Induction of plasma membrane depolarization in trypomastigote forms of Trypanosoma cruzi Y at IC50 measured after 2 hrs by DiSBAC2(3)-probe based assay
[2] = target: Cytochrome P450 2D6 (Homo sapiens, UniProt P10635); assay: Inhibition of CYP2D6 (unknown origin); format: ADME
[3] = target: Cytochrome P450 3A4 (Homo sapiens, UniProt P08684); assay: Inhibition of CYP3A4 (unknown origin); format: ADME
[4] = Selectivity index, ratio of CC50 for cytotoxicity against mouse NCTC clone 929 cells to IC50 for trypomastigote forms of Trypanosoma cruzi Y infected in LLC-MK2 cells; format: toxicity, cell-based; details: read-out: Ratio CC50/IC50
[5] = target: Cytochrome P450 2C9 (Homo sapiens, UniProt P11712); assay: Inhibition of CYP2C9 (unknown origin); format: ADME
[6] = target: Cytochrome P450 2C19 (Homo sapiens, UniProt P33261); assay: Inhibition of CYP2C19 (unknown origin); format: ADME
[7] = tested on: Trypanosoma cruzi; assay: Antitrypanosomal activity against trypomastigote forms of Trypanosoma cruzi Y infected in LLC-MK2 cells assessed as parasite growth inhibition by resazurin assay; format: functional, organism-based
[8] = target: T1, Cytochrome P450 1A2 (Homo sapiens, UniProt P05177); assay: Inhibition of CYP1A2 (unknown origin); format: ADME
T1 sequence (P05177 whole entry): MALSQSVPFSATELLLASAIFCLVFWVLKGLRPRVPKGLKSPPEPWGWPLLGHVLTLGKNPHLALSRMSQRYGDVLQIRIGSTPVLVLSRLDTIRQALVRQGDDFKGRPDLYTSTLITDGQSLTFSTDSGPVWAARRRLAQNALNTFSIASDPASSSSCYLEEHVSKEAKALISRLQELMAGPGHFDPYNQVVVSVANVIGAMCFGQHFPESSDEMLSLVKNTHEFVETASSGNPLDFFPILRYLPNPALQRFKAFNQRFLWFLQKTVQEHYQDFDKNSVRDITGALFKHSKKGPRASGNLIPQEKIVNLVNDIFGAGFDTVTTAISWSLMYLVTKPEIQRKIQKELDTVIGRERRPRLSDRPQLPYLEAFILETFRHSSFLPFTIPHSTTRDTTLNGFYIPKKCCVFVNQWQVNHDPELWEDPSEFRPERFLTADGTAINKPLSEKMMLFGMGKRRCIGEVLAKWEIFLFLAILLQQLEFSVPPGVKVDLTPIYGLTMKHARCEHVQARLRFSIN

[9] = Cytotoxicity against mouse NCTC clone 929 cells assessed as reduction in cell viability after 48 hrs by MTT assay; format: cell-based
[10] = tested on: Trypanosoma cruzi; assay: Antitrypanosomal activity against trypomastigote forms of Trypanosoma cruzi Y assessed as increase in ATP levels at IC50 incubated for 2 hrs by microplate reader method; format: functional, organism-based
[11] = tested on: Trypanosoma cruzi; assay: Antitrypanosomal activity against trypomastigote forms of Trypanosoma cruzi Y assessed as increase in ATP levels at IC50 incubated for 1 hrs by microplate reader method; format: functional, organism-based
[12] = tested on: Cell membrane; assay: Induction of cell membrane permeability in trypomastigote forms of Trypanosoma Cruzi Y at IC50 measured after 120 mins by SYSTOX Green assay; format: subcellular
[13] = tested on: Trypanosoma cruzi; assay: Induction of ROS generation in trypomastigote forms of Trypanosoma cruzi Y assessed as effect on reactive oxygen species level at IC50 for 2 hrs by fluorimetric microplate reader method; format: functional, organism-based
[14] = tested on: Trypanosoma cruzi; assay: Induction of mitochondrial membrane depolarization in trypomastigote forms of Trypanosoma cruzi Y at IC50 measured after 2 hrs by JC-1 staining based flow cytometry; format: functional, organism-based
[15] = tested on: Trypanosoma cruzi; assay: Induction of acidocalcisome alkalinization in trypomastigotes form of Trypanosoma cruzi Y assessed as upregulation of Ca2+ level at IC50 using acridine orange measured after 60 min by fluorescent based assay
[16] = tested on: Trypanosoma cruzi; assay: Antitrypanosomal activity against Trypanosoma cruzi Y assessed as increase in calcium level at IC50 measured upto 160 min by Fluo-4 AM probe-based spectrofluorimetric method; format: functional, organism-based; details: time min <=160
[17] = tested on: Cell membrane; assay: Induction of cell membrane permeability in trypomastigote forms of Trypanosoma Cruzi Y at IC50 measured after 80 mins by SYSTOX Green assay; format: subcellular

Sequence of Cytochrome P450 2C9 (P11712 whole entry): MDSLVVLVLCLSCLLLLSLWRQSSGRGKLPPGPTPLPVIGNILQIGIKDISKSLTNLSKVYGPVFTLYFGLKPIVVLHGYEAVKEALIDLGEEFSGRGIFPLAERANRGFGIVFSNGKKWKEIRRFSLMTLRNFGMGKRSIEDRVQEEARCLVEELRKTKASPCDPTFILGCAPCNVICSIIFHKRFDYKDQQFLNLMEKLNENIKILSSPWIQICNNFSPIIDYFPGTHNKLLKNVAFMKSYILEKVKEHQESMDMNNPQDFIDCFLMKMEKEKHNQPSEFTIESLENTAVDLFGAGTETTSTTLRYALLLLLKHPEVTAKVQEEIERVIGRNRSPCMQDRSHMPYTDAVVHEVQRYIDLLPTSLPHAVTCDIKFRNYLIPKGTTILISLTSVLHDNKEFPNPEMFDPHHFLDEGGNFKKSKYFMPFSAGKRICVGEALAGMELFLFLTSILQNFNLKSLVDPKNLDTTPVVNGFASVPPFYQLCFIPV
Sequence of Cytochrome P450 2D6 (P10635 whole entry): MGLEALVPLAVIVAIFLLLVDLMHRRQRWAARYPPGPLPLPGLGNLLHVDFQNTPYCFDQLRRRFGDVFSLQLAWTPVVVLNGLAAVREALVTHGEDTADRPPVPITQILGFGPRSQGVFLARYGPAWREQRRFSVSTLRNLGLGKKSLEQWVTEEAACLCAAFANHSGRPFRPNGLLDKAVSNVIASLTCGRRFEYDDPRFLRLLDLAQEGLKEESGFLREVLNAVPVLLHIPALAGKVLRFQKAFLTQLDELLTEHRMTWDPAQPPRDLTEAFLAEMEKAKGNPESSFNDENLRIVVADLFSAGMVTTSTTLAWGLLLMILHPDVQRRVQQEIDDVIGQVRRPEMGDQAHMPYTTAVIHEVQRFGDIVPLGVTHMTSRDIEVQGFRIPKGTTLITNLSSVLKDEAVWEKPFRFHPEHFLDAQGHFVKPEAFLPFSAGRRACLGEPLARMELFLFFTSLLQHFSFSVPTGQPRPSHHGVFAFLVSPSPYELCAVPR
Sequence of Cytochrome P450 2C19 (P33261 whole entry): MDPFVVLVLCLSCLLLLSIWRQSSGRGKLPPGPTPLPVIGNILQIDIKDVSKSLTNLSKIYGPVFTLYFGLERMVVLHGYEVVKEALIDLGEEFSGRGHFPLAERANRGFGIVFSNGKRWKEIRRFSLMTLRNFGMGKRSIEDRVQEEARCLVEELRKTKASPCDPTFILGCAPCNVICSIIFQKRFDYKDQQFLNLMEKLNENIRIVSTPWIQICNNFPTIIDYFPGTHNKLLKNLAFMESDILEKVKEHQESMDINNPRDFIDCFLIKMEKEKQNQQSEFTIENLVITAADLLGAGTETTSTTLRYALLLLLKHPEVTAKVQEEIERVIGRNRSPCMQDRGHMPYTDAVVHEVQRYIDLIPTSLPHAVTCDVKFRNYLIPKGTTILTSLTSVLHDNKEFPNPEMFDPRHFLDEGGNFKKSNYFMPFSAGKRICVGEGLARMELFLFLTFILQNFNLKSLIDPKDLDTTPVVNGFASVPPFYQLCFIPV
Sequence of Cytochrome P450 3A4 (P08684 whole entry): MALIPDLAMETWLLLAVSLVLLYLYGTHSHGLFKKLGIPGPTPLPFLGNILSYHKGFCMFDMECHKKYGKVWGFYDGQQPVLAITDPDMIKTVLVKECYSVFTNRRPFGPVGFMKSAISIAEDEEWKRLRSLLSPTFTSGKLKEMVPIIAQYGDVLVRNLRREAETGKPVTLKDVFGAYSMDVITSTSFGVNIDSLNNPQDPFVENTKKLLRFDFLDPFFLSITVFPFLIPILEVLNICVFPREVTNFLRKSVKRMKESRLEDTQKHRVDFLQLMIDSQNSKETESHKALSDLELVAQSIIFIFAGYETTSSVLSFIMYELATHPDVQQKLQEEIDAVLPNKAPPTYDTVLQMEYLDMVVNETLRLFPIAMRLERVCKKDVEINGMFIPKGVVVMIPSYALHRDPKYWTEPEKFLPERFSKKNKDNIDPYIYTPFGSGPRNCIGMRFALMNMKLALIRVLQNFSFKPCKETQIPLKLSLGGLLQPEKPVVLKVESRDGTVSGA

Activity [1]	inhibition (INH) [2]	inhibition (INH) [3]	inhibition (INH) [5]	inhibition (INH) [6]	pIC50 [7]	inhibition (INH) [8]	Activity [15]	Structure (SMILES)	selectivity ratio [4]	CC50 at 48 h [9] [µM]	Activity [10]	Activity [11]	Activity [12]	Activity [13]	Activity [14]	Activity [16]	Activity [17]
Active	Active	Active	Active	Active	5.40	Active		CCCCCCCCCCCCCCC/C=C1/C[C@H](CO)OC1=O	17.8	71.2							
Active	Not Active	Not Active	Not Active	Not Active	5.68	Not Active	Active	CCCCCCCCCCCCCCCCCCCCC/C=C1/C[C@H](CO)OC1=O	> 95.2	> 200	inactive	inactive	inactive	inactive	Active	Active	Active
Active	Active	Active	Active	Active	4.88	Active	Active	C=CCCCCCCCCCCCCC/C=C1/C[C@H](CO)OC1=O	> 15.3	> 200		Active	inactive	inactive	Active	Active	Active

Structure (SMILES)	Activity [1]	inhibition (INH) [2]	inhibition (INH) [3]	inhibition (INH) [5]	inhibition (INH) [6]	pIC50 [7]	inhibition (INH) [8]	Activity [15]	selectivity ratio [4]	CC50 at 48 h [9] [µM]	Activity [10]	Activity [11]	Activity [12]	Activity [13]	Activity [14]	Activity [16]	Activity [17]
O=C(Cn1ccnc1[N+](=O)[O-])NCc1ccccc1 [BENZNIDAZOLE]						4.79			> 12.2	> 200							
